Experimental data taken from paper PMC2289263 (The Journal of Cell Biology, 1992).
Each block holds one substance with its values, some of them ahead of it.

Key:
[1] = test system: B16-F10, A549, rabbit smooth muscle and bovine aortic endothelial cells; experiment: Cell adhesion assay, summary over the four cell types of Table II; type: cell-based; details: for Cell attachment compared to TSP, range over four cell types: text summary of Table II
[2] = test system: B16-F10 mouse melanoma cells in C57BL/6 mouse; experiment: Tumor cell metastasis assay; type: in vivo; details: compared with buffer control
Heparin binding activity = details: data not shown
human platelets = experiment: ADP-induced platelet aggregation in platelet-rich plasma; type: cell-based; details: ADP for 5 min, 500 ug/ml peptide; buffer control more than 1,000 per clump
[3] = Oxidative stability of peptide in solution; type: physicochemical

Substance: ANKHYF [reference compound]
Cell adhesive activity (in words) [1]: little or no significant cell adhesive activity | Effect on lung tumor colony formation (in words) [2]: no significant effect

Heparin binding activity (Heparin binding activity): possessed heparin binding activity
Substance: CRVTCG

Substance: CSTSCR
Cell attachment compared to TSP, range over four cell types [1]: 39-104%

Heparin binding activity (Heparin binding activity): did not | Oxidation in solution (in words) ([3]; multimers with apparent molecular weights of 2,000 on SDS-gels): slowly oxidized in solution | Time for which freshly prepared solutions were stable ([3]; peptide in solution, oxidation of cysteine thiols): at least 2 h
Substance: CSVTCG
Cell attachment compared to TSP, range over four cell types [1]: 29-49% | Platelets per clump (human platelets): 10-50 platelets per clump

Substance: CSVTCR
Cell attachment compared to TSP, range over four cell types [1]: 90-159%

Substance: Cyclic CSVTCG (disulfide)
Cell adhesive activity (in words) [1]: approximately to the same extent as CSVTCG

Substance: TCVCGS [reference compound]
Cell adhesive activity (in words) [1]: little or no significant cell adhesive activity | Effect on lung tumor colony formation (in words) [2]: no significant effect

Substance: TSP: 450,000-dalton glycoprotein secreted by platelets, purified from activated platelets
Number of adherent cells representing 100% adhesion ([1]; TSP-coated microtiter wells): 500 adherent cells per min'

Substance: VCTGSC [reference compound]
Cell adhesive activity (in words) [1]: little or no significant cell adhesive activity
